The text below walks through data of patent publication US9802960B2 (MILLENNIUM PHARMACEUTICALS, INC., priority 2014, dated 2017).

Broadly, the inhibition is the change of the read-out against control, counted positive when it falls.

The experiment deals with Human VPS34 (Homo sapiens (Human), UniProt Q8NEB9). In words: Human VPS34 enzyme assay (Adapta TR-FRET). It is filed as biochemical. The settings on record: compound concentration 1.11 μM; read-out: Percent Inhibition. In general terms: In TR-FRET formats the signal depends on donor and acceptor labels being close together.
Human VPS34, sequence (Q8NEB9 whole entry): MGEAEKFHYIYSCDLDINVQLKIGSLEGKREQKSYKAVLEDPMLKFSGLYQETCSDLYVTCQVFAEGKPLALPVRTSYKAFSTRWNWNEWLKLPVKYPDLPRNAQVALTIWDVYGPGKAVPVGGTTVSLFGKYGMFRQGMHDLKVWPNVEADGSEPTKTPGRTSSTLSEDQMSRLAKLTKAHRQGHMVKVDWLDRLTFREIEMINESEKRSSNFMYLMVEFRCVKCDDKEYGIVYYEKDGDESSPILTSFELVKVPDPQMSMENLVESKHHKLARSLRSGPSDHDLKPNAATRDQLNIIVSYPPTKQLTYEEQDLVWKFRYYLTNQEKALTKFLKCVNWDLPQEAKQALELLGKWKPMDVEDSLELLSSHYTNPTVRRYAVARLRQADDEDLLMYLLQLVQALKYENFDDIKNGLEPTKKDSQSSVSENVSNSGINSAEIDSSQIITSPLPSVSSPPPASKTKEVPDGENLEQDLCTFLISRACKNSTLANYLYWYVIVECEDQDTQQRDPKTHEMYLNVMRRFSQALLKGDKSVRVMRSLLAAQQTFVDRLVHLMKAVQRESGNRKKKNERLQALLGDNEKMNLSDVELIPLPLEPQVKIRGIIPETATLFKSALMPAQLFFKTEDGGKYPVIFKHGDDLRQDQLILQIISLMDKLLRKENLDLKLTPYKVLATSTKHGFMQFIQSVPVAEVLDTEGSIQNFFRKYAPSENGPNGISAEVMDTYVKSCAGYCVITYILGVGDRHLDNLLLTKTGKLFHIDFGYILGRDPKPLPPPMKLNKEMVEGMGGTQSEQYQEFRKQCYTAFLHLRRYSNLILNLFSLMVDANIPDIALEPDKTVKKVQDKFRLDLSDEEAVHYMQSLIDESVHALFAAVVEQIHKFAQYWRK
Consider `CCN(CC)S(=O)(=O)c1cncc(-c2ccnc(NC(C)=O)c2)c1` [Compound I-120, N-[5-(diethylsulfamoyl)-3,4′-bipyridin-2′-yl]acetamide], for which the inhibition at 1.11 µM was > 99%.

As to `CC(=O)Nc1cc(-c2cnc(N)c(C(=O)Nc3cc(C)cnn3)c2)ccn1` [Compound I-121, 2′-acetamido-6-amino-N-(5-methylpyridazin-3-yl)-3,4′-bipyridine-5-carboxamide], the inhibition at 1.11 µM is > 99%.

Turning to `CC(=O)Nc1cc(-c2cnc(N)c(S(=O)(=O)O)c2)ccn1` [Compound I-122, 2′-acetamido-6-amino-3,4′-bipyridine-5-sulfonic acid], the inhibition at 1.11 µM was > 99%.

With `COc1cccc(S(=O)(=O)Nc2cc(-c3ccnc(NC(C)=O)c3)cnc2C)c1` [Compound I-123], the inhibition at 1.11 µM is > 99%.

As to `CCN(CC)S(=O)(=O)c1cc(-c2ccnc(NC(C)=O)c2)cnc1N` [Compound I-124, N-[6-amino-5-(diethylsulfamoyl)-3,4′-bipyridin-2′-yl]acetamide], the inhibition at 1.11 µM worked out at 91%.

In the case of `CC(=O)Nc1cc(-c2cnc(N)c(C(=O)N3Cc4ccccc4C3)c2)ccn1` [Compound I-125, N-[6-amino-5-(1,3-dihydro-2H-isoindoI-2-ylcarbonyl)-3,4′-bipyridin-2′-yl]acetamide], the inhibition at 1.11 µM was > 99%.

Regarding `CC(=O)Nc1cc(-c2cnc(N)c(S(=O)(=O)CCc3ccccc3)c2)ccn1` [Compound I-126, N-{6-amino-5-[(2-phenylethyl)sulfonyl]-3,4′-bipyridin-2′-yl}acetamide], the inhibition at 1.11 µM was > 99%.

As for `COc1ncc(-c2ccnc(NC(C)=O)c2)cc1C(=O)N(C)C` [Compound I-127, 2′-acetamido-6-methoxy-N,N-dimethyl-3,4′-bipyridine-5-carboxamide], the inhibition at 1.11 µM was > 99%.

On to `CC(=O)Nc1cc(-c2cnc(C)c(NS(=O)(=O)c3ccc(C)cc3Cl)c2)ccn1` [Compound I-128], for which the inhibition at 1.11 µM is > 99%.

With `CC(=O)Nc1cc(-c2cnc(C)c(NS(=O)(=O)c3ccc(C)cc3F)c2)c(C)cn1` [Compound I-130, N-(5-{[(2-fluoro-4-methylphenyl)sulfonyl]amino}-5′,6-dimethyl-3,4′-bipyridin-2′-yl)acetamide], the inhibition at 1.11 µM is > 99%.

As for `CC(=O)Nc1cc(-c2cnc(C)c(NS(=O)(=O)c3ccc(C(C)(C)C)cc3)c2)ccn1` [Compound I-131, N-(5-{[(4-tert-butylphenyl)sulfonyl]amino}-6-methyl-3,4′-bipyridin-2′-yl)acetamide], the inhibition at 1.11 µM was > 99%.

Turning to `CNc1ncc(-c2ccnc(NC(C)=O)c2)cc1N1CCCS1(=O)=O` [Compound I-132, N-[5-(1,1-dioxidoisothiazolidin-2-yl)-6-(methylamino)-3,4′-bipyridin-2′-yl]acetamide], the inhibition at 1.11 µM is > 99%.

Consider `CC(=O)Nc1cc(-c2cnc(N)c(N(C)S(C)(=O)=O)c2)ccn1` [Compound I-133, N-{6-amino-5-[methyl(methylsulfonyl)amino]-3,4′-bipyridin-2′-yl}acetamide], for which the inhibition at 1.11 µM was > 99%.

In the case of `CC(=O)Nc1cc(-c2cnc(C)c(NS(=O)(=O)c3ccc(C(C)C)cc3)c2)ccn1` [Compound I-134, N-(5-{[(4-isopropylphenyl)sulfonyl]amino}-6-methyl-3,4′-bipyridin-2′-yl)acetamide], the inhibition at 1.11 µM was > 99%.

Take `CC(=O)Nc1cc(-c2cnc3ncn(CC4CC4)c3c2)ccn1` [Compound I-135, N-{4-[1-(cyclopropylmethyl)-1H-imidazo[4,5-b]pyridin-6-yl]pyridin-2-yl}acetamide]: the inhibition at 1.11 µM turned out to be 99%.

In the case of `CC(=O)Nc1cc(-c2cnc(N)c(C(=O)Nc3ccccc3Cl)c2)ccn1` [Compound I-136, 2′-acetamido-6-amino-N-(2-chlorophenyl)-3,4′-bipyridine-5-carboxamide], the inhibition at 1.11 µM is > 99%.

On to `CC(=O)Nc1cc(-c2cncc(S(=O)(=O)N(C)C)c2)ccn1` [Compound I-137, N-[5-(dimethylsulfamoyl)-3,4′-bipyridin-2′-yl]acetamide], for which the inhibition at 1.11 µM was > 99%.

Consider `CC(=O)Nc1cc(-c2cnc(N)c(S(=O)(=O)Cc3ccc(F)cc3F)c2)ccn1` [Compound I-138, N-{6-amino-5-[(2,4-difluorobenzyl)sulfonyl]-3,4′-bipyridin-2′-yl}acetamide], for which the inhibition at 1.11 µM is > 99%.

`CC(=O)Nc1cc(-c2cncc(N)c2)ccn1` [Compound I-139, N-(5-amino-3,4′-bipyridin-2′-yl)acetamide]: the inhibition at 1.11 µM was 61%.

As for `CC(=O)Nc1cc(-c2cnc3[nH]ccc3c2)ccn1` [Compound I-140, N-[4-(1H-pyrrolo[2,3-b]pyridin-5-yl)pyridin-2-yl]acetamide], the inhibition at 1.11 µM is > 99%.

For the molecule `CNc1ncc(-c2ccnc(NC(C)=O)c2)cc1N(CC1CC1)S(C)(=O)=O` [Compound I-141, N-{5-[(cyclopropylmethyl)(methylsulfonyl)amino]-6-(methylamino)-3,4′-bipyridin-2′-yl}acetamide], the inhibition at 1.11 µM is > 99%.

For the molecule `COc1cc(C)ccc1S(=O)(=O)Nc1cc(-c2ccnc(NC(C)=O)c2)cnc1C` [Compound I-142, N-(5-{[(2-methoxy-4-methylphenyl)sulfonyl]amino}-6-methyl-3,4′-bipyridin-2′-yl)acetamide], the inhibition at 1.11 µM was > 99%.

As to `CC(=O)Nc1cc(-c2cnc(C)c(NS(=O)(=O)c3cc(C(F)(F)F)ccc3F)c2)ccn1` [Compound I-143, N-[5-({[2-fluoro-5-(trifluoromethyl)phenyl]sulfonyl}amino)-6-methyl-3,4′-bipyridin-2′-yl]acetamide], the inhibition at 1.11 µM is > 99%.

With `CC(=O)Nc1cc(-c2cnc(C)c(NS(=O)(=O)c3ccccc3F)c2)ccn1` [Compound I-144, N-(5-{[(2-fluorophenyl)sulfonyl]amino}-6-methyl-3,4′-bipyridin-2′-yl)acetamide], the inhibition at 1.11 µM is > 99%.

`CCOCCS(=O)(=O)c1cc(-c2ccnc(NC(C)=O)c2)cnc1N` [Compound I-145, N-{6-amino-5-[(2-ethoxyethyl)sulfonyl]-3,4′-bipyridin-2′-yl}acetamide]: the inhibition at 1.11 µM is > 99%.

On to `COC(=O)Nc1cc(-c2cnc(C)c(N3CCCS3(=O)=O)c2)ccn1` [Compound I-146, methyl[5-(1,1-dioxidoisothiazolidin-2-yl)-6-methyl-3,4′-bipyridin-2′-yl]carbamate], for which the inhibition at 1.11 µM was > 99%.

As to `CNc1ncc(-c2ccnc(NC(C)=O)c2)cc1N(C)S(C)(=O)=O` [Compound I-147, N-{6-(methylamino)-5-[methyl(methylsulfonyl)amino]-3,4′-bipyridin-2′-yl}acetamide], the inhibition at 1.11 µM is > 99%.

For `CC(=O)Nc1cc(-c2cnc(N)c(S(=O)(=O)NCCc3ccccc3)c2)ccn1` [Compound I-148, N-{6-amino-5-[(2-phenylethyl)sulfamoyl]-3,4′-bipyridin-2′-yl}acetamide], the inhibition at 1.11 µM is > 99%.

Regarding `CC(=O)Nc1cc(-c2cnc(N)c(C(=O)N(C)C)c2)ccn1` [Compound I-149, 2′-acetamido-6-amino-N,N-dimethyl-3,4′-bipyridine-5-carboxamide], the inhibition at 1.11 µM was > 99%.

As to `CC(=O)Nc1cc(-c2cnc(C)c(NS(=O)(=O)c3c(F)cccc3F)c2)ccn1` [Compound I-150, N-(5-{[(2,6-difluorophenyl)sulfonyl]amino}-6-methyl-3,4′-bipyridin-2′-yl)acetamide], the inhibition at 1.11 µM is > 99%.
